The values below come from patent publication US8859545B2, “Tetrahydronaphthyridine and tetrahydropyrido[4,3-D]pyrimidine compounds and compositions thereof useful for the treatment of inflammatory and respiratory diseases” (Evotec AG, priority 2005, dated 2014).

Structures are written as SMILES.

This assay deals with P2X2/3 chimera (P2X2/3C). Put plainly: Calcium uptake assay (P2X antagonist assay, agonist-induced calcium influx). Format: cell-based. An excerpt:
Human P2X3 (Accession no. NM_002559), P2X2 (Accession no. NM_170682) and Rat P2X3 (Accession no. NM_031075) and P2X2 (Accession no. NM_053656) are cloned into a mammalian expression vector (e.g., pcDNA5/TO or pcDNA3 Invitrogen). For coexpression of P2X2 and P2X3, the coding regions of both receptors were cloned into a bicistronic vector using methods similar to those described by Kawashima et al., Receptors Channels 5:53-60, 1998. The P2X2/3 chimera clone was created as described by Neelands et al, and then cloned into an expression vector as above. Receptors are expressed in cells (e.g., HEK293 or 1321N1) via transient transfection using standard lipid mediated transfection, or by creation of stable transfectants for each receptor. Cell lines are maintained in DMEM+5% Glutamax, the appropriate level of selective antibiotic, and 10% heat inactivated FBS.
The agonist EC50 is determined at the start of the assay and compound IC50 experiments are run using a set agonist concentration (EC50-90 depending on cell line) as stimulus. The agonists used are αβMeATP, ATP, or other ATP analogs. Compounds may be tested at concentrations ranging from 1 μM to 10 μM. Functional activity of compounds at the P2X receptor is determined by measuring their ability to inhibit agonist-induced calcium influx. Compounds may be tested for antagonist activity against the P2X2/3 chimera, the P2X3 homomer, or the P2X2/3 heteromer. To test for antagonist activity, cells expressing the appropriate receptor are seeded onto 96 or 384 well plates 18-24 hours prior to assay. On the day of the assay, cells are loaded with calcium-sensitive fluorescent dye (e.g., Fluo-4 no wash reagent-Invitrogen cat# F36206, or the BD™ PBX Calcium Assay Kit-BD cat#640175) in Hank's Buffered Salt Solution (HBSS) with up to 10 mM supplemental CaCl2. Plates are incubated at 37° C. and then equilibrated at room temperature. Antagonism of agonist-induced calcium influx is measured using a fluorescent imaging plate reader. The assay comprises two stages: a pre-treatment phase followed by a treatment phase. Compounds may be tested as follows: For the pre-treatment phase, 50 μL of 3× concentration of test compound in HBSS is added to cells containing 100 μL of dye loading media to achieve a final concentration of 1×. For the treatment phase, at a set interval after pre-treatment, 50 μL of 1× test compound plus 4× agonist solution is added to cells. Fluorescence is measured at 0.1-3 second intervals with an excitation wavelength of 494 nm and an emission wavelength of 515 nm. Responses are measured as peak fluorescence after compound-agonist addition minus baseline fluorescence prior to treatment. Percent inhibition is calculated as follows: […]
A calcium uptake assay was performed as described in paragraphs […] above.

Setting [1] is: at 3 μM (symbol before the slash).
Where [2] appears, read: at 10 μM (symbol after the slash).

Consider `Cc1ccc(N2CCc3ncnc(NCCc4ccc(Cl)c(Cl)c4)c3C2)nc1` [Compound 54], for which, under setting [1], the “Ca Influx P2X2/3C % Inhibition at 3 μM/10 μM” value (shortened to “Ca Influx P2X2/3C % Inhibition”) was “+++/ ^ (compound exhibited 50-75% inhibition at 3 μM)”.

For the compound `Cc1ccc(N2CCc3ncnc(NCc4cccc(Cl)c4)c3C2)nc1` [Compound 55], the “Ca Influx P2X2/3C % Inhibition” value under setting [1] was “++++/ ^ (compound exhibited 75% or greater inhibition at 3 μM)”.

For the compound `Cc1ccc(CNc2ncnc3c2CN(c2ccc(C)cn2)CC3)cc1` [Compound 56], the “Ca Influx P2X2/3C % Inhibition” value under setting [1] is “++++/ ^ (compound exhibited 75% or greater inhibition at 3 μM)”. Still for that read-out and setting: then `Cc1ccc(N2CCc3ncnc(NCc4cccc(F)c4)c3C2)nc1` [Compound 57], with “++++/ ^ (compound exhibited 75% or greater inhibition at 3 μM)”. Consider `Cc1ccc(N2CCc3ncnc(NCc4ccc(C(C)C)cc4)c3C2)nc1` [Compound 58], for which the “Ca Influx P2X2/3C % Inhibition” value under setting [1] was “+/ (compound exhibited 0-25% inhibition at 3 μM)”.

With `COc1ccc(CN(C)c2ncnc3c2CN(c2ccc(C)cn2)CC3)cc1OC` [Compound 59], the “Ca Influx P2X2/3C % Inhibition” value is, setting by setting: under setting [1], “++ (compound exhibited 25-50% inhibition at 3 μM)”; under setting [2], “**** (compound exhibited 25-50% inhibition at 10 μM)”. As to `Cc1ccc(N2CCc3ncnc(NCCc4cccc(C(F)(F)F)c4)c3C2)nc1` [Compound 61], the “Ca Influx P2X2/3C % Inhibition” value reads like this: under setting [1], “++++ (compound exhibited 75% or greater inhibition at 3 μM)”; under setting [2], “**** (compound exhibited 25-50% inhibition at 10 μM)”. For `Cc1ccc(N2CCc3ncnc(N(C)Cc4ccc(Cl)cc4)c3C2)nc1` [Compound 62], under setting [1], the “Ca Influx P2X2/3C % Inhibition” value is reported as “+/ (compound exhibited 0-25% inhibition at 3 μM)”. Still for that read-out and setting: then `COc1ccccc1CN(C)c1ncnc2c1CN(c1ccc(C)cn1)CC2` [Compound 63], with “+/ (compound exhibited 0-25% inhibition at 3 μM)”; and `COc1cccc(CN(C)c2ncnc3c2CN(c2ccc(C)cn2)CC3)c1` [Compound 64], with “+/ (compound exhibited 0-25% inhibition at 3 μM)”.

For `CCc1ccc(CN(C)c2ncnc3c2CN(c2ccc(C)cn2)CC3)cc1` [Compound 65], the “Ca Influx P2X2/3C % Inhibition” value under setting [1] is “+/ (compound exhibited 0-25% inhibition at 3 μM)”. As for `Cc1ccc(N2CCc3ncnc(N(C)Cc4cccc(Cl)c4)c3C2)nc1` [Compound 66], under setting [1], the “Ca Influx P2X2/3C % Inhibition” value is “+/ (compound exhibited 0-25% inhibition at 3 μM)”.

Take `Cc1ccc(N2CCc3ncnc(N(C)Cc4ccc(F)cc4)c3C2)nc1` [Compound 67]: the “Ca Influx P2X2/3C % Inhibition” value is “+ (compound exhibited 0-25% inhibition at 3 μM)” under setting [1] and “*** (compound exhibited 25-50% inhibition at 10 μM)” under setting [2]. As for `COc1ccc(CN(C)c2ncnc3c2CN(c2ccc(C)cn2)CC3)cc1` [Compound 68], under setting [1], the “Ca Influx P2X2/3C % Inhibition” value was “+/ (compound exhibited 0-25% inhibition at 3 μM)”. Take `Cc1ccc(N2CCc3ncnc(N(C)Cc4ccc(C(F)(F)F)cc4)c3C2)nc1` [Compound 69]: the “Ca Influx P2X2/3C % Inhibition” value under setting [1] was “+/ (compound exhibited 0-25% inhibition at 3 μM)”.

Regarding `Cc1ccc(CN(C)c2ncnc3c2CN(c2ccc(C)cn2)CC3)cc1` [Compound 70], the “Ca Influx P2X2/3C % Inhibition” value under setting [1] is given as “++/ (compound exhibited 25-50% inhibition at 3 μM)”. Still for that read-out and setting: the value for `Cc1ccc(N2CCc3ncnc(NCc4cc(F)ccc4F)c3C2)nc1` [Compound 71] was “+++/ ^ (compound exhibited 50-75% inhibition at 3 μM)”; that for `Cc1ccc(N2CCc3ncnc(NCc4ccc(F)c(F)c4)c3C2)nc1` [Compound 73] was “++++/ ^ (compound exhibited 75% or greater inhibition at 3 μM)”; that for `Cc1ccc(N2CCc3ncnc(NCc4cc(C(F)(F)F)ccc4F)c3C2)nc1` [Compound 74] was “+/ (compound exhibited 0-25% inhibition at 3 μM)”. Same read-out and setting: the value for `Cc1ccc(N2CCc3ncnc(NCc4cc(F)cc(C(F)(F)F)c4)c3C2)nc1` [Compound 75] was “+/ (compound exhibited 0-25% inhibition at 3 μM)”. `Cc1ccc(N2CCc3ncnc(NCc4ccc(F)c(C(F)(F)F)c4)c3C2)nc1` [Compound 76]: the “Ca Influx P2X2/3C % Inhibition” value under setting [1] was “+/ (compound exhibited 0-25% inhibition at 3 μM)”. In the case of `Cc1ccc(N2CCc3ncnc(NCc4cccc(F)c4F)c3C2)nc1` [Compound 77], the “Ca Influx P2X2/3C % Inhibition” value under setting [1] is recorded as “++++/ ^ (compound exhibited 75% or greater inhibition at 3 μM)”. As to `Cc1ccc(N2CCc3ncnc(NCc4ccc(Cl)cc4Cl)c3C2)nc1` [Compound 78], the “Ca Influx P2X2/3C % Inhibition” value under setting [1] was “+/ (compound exhibited 0-25% inhibition at 3 μM)”.

For `Cc1ccc(N2CCc3ncnc(NCc4ccc(C)cc4C)c3C2)nc1` [Compound 79], the “Ca Influx P2X2/3C % Inhibition” value under setting [1] was “++/ (compound exhibited 25-50% inhibition at 3 μM)”.

As for `Cc1ccc(N2CCc3ncnc(NCc4cccc(C)c4C)c3C2)nc1` [Compound 80], under setting [1], the “Ca Influx P2X2/3C % Inhibition” value is “+/ (compound exhibited 0-25% inhibition at 3 μM)”. As for `Cc1ccc(N2CCc3ncnc(NCc4ccc(Cl)cc4F)c3C2)nc1` [Compound 83], the “Ca Influx P2X2/3C % Inhibition” value under setting [1] is “+++/ ^ (compound exhibited 50-75% inhibition at 3 μM)”. In the case of `Cc1ccc(N2CCc3ncnc(NCc4ccc(Cl)c(Cl)c4)c3C2)nc1` [Compound 85], the “Ca Influx P2X2/3C % Inhibition” value under setting [1] is listed as “+/ (compound exhibited 0-25% inhibition at 3 μM)”. As for `Cc1ccc(N2CCc3ncnc(NC(C)c4ccc(F)cc4)c3C2)nc1` (stereo not drawn) [Compound 86], the “Ca Influx P2X2/3C % Inhibition” value under setting [1] is “++++/ ^ (compound exhibited 75% or greater inhibition at 3 μM)”. `COc1cc(CNc2ncnc3c2CN(c2ccc(C)cn2)CC3)cc(OC)c1` [Compound 87]: the “Ca Influx P2X2/3C % Inhibition” value under setting [1] was “+/ (compound exhibited 0-25% inhibition at 3 μM)”.

Consider `Cc1ccc(N2CCc3ncnc(NCc4cc(C(F)(F)F)ccc4Cl)c3C2)nc1` [Compound 89], for which the “Ca Influx P2X2/3C % Inhibition” value under setting [1] is reported as “+ (compound exhibited 0-25% inhibition at 3 μM)” and the “Ca Influx P2X2/3C % Inhibition” value under setting [2] is on record as “* (compound exhibited 0-25% inhibition at 10 μM)”. Consider `Cc1ccc(N2CCc3ncnc(NCc4ccc(F)c(C)c4)c3C2)nc1` [Compound 98], for which the “Ca Influx P2X2/3C % Inhibition” value under setting [1] was “++++/ ^ (compound exhibited 75% or greater inhibition at 3 μM)”. On the same count and under the same terms, then `Cc1ccc(N2CCc3ncnc(NCc4cc(Cl)ccc4F)c3C2)nc1` [Compound 111], with “+++/ ^ (compound exhibited 50-75% inhibition at 3 μM)”; and `Cc1ccc(N2CCc3ncnc(NCc4cc(Cl)cc(Cl)c4)c3C2)nc1` [Compound 115], with “+/ (compound exhibited 0-25% inhibition at 3 μM)”.

In the case of `Cc1ccc(N2CCc3ncnc(NCc4ccc(C(F)(F)F)cc4F)c3C2)nc1` [Compound 121], the “Ca Influx P2X2/3C % Inhibition” value under setting [1] is “++++/ ^ (compound exhibited 75% or greater inhibition at 3 μM)”. As for `Cc1ccc(N2CCc3ncnc(NCc4cc(C(F)(F)F)cc(C(F)(F)F)c4)c3C2)nc1` [Compound 125], under setting [1], the “Ca Influx P2X2/3C % Inhibition” value is reported as “+/ (compound exhibited 0-25% inhibition at 3 μM)”.
